The test concerns T1, β-tubulin.
T1 construct: gene TUBB
Briefly: ITDR-CETSA of β-tubulin at […] °C in CFPAC-1 COMT-/- cells. It is filed as cell-based.

The structures appear in SMILES notation.

As usually defined, the EC50 is the concentration needed to bring the measured effect to its halfway point. A higher EC50 goes with weaker potency.

Turning to `CNc1nc2ccccc2n2c(-c3ccc(OC)c(O)c3)cnc12` [EAPB04303], the EC50 was 3 ± 2 µM.

Values taken from publication PMC12149313 (Cell Death & Disease, 2025).
